From patent US4612318A, “CNS-depressant and analgesic tricyclo-[pyrazolo-[3,4-6]-pyridine] derivatives and pharmaceutical compositions thereof” (Gruppo Lepetit S.p.A., priority 1982, dated 1986)

Columns and labels:
[1] = tested on: secondary conditioned response (CR2), primary conditioned response (CR) and unconditioned response (UR) of rats; experiment: "pole climbing avoidance test" (anti-anxiety activity); type: in vivo; conditions: i.p., about 3 to about 60 mg/kg, groups of ten rats
Description: The anti-anxiety activity of the compounds of the invention was investigated by means of the "pole climbing avoidance test", performed essentially as described by G. Maffii, in Journ. Pharm. Pharmacol., 11 129, (1959). A conditioned animal, generally rat, is deconditioned, i.e. is brought to its normal pyschic behaviour, by administration of a suitable amount of the compound to be tested. According to the authors, an inhibition of the secondary conditioned response (CR2) without a contemporary or coupled with a not significant inhibition of the primary conditioned response (CR) and the unconditioned response (UR) is a clear indication of an anti-anxiety effect since these last two parameters are connected with sedative and hypnotic properties.

[2] = tested on: writhing in mice; pain due to compression of oedema paws in rats; experiment: analgesic activity in both tests (writhing test in mice and pain relief test in rats); type: in vivo
Description: The analgesic activity of the compounds of the present invention was ascertained by means of two known tests for analgesia: the "writhing test" in mice, described by L.C. Hendershot and J. Forsaith, in J. Pharm. Exp. Therap. 125, 237, (1959), and the "pain relief test" in rats described by L. O. Randall and J. J. Selitto, in Arch. Int. Pharmacodyn. 111, 409, (1957). In the former the disappearance or the reduction of writhing in mice, intraperitoneally administered, with p-phenylquinone--a substance known to produce pain especially in the place of injection--is evaluated; the latter test is used to evaluate the ratio of relief from the pain due to compression of oedema paws in rats orally administered with the test compound.

[3] = tested on: writhing in mice intraperitoneally administered with p-phenylquinone; experiment: "writhing test" (p-phenylquinone) for analgesia; type: in vivo
Procedure: (§1) Hendershot and J. Forsaith, in J. Pharm. Exp. Therap. […] Int. Pharmacodyn. […] In the former the disappearance or the reduction of writhing in mice, intraperitoneally administered, with p-phenylquinone--a substance known to produce pain especially in the place of injection--is evaluated; the latter test is used to evaluate the ratio of relief from the pain due to compression of oedema paws in rats orally administered with the test compound.

[4] = tested on: pain due to compression of oedema paws in rats; experiment: "pain relief test" (compression of oedema paws) for analgesia; type: in vivo
Procedure: as §1

[5] = acute toxicity (LD50) in mice; conditions: mouse, in vivo, po; orally administered mice
[6] = acute toxicity (LD50) in rats; conditions: rat, in vivo, po; orally administered rats

In the case of `CCC(=O)N1CC=C(c2c(C)nn(C)c2N)CC1` [Example 8], the “influence on the CR and the UR (in words)” value (from here on “influence”) [1] is reported as “no practical influence”.

In the case of `Cc1nn(C)c2[nH]c(=O)c3c(c12)CCCC3` [Example 18, 6,7,8,9-Tetrahydro-1,3-dimethyl-3H-pyrazolo[3,4-c]isoquinoline-5(4H)-one], the “influence” value [1] is reported as “no practical influence”.

With `Cc1nn(C)c2ncc3c(c12)CCC3` [Example 55] the “analgesic activity in these tests (in words)” value (from here on “analgesic activity”) [2] was “good activity”.

For `Cc1nn(C)c2c1c1c(c(=O)n2CCN2CCN(C)CC2)CCCC1` [Example 45], the “influence” value [1] was “no practical influence”.

With `Cc1nn(C)c2ncc3c(c12)CCCC3` [Example 57] the “percent of inhibition of writhings” value ([3]; 10 mg/kg per os) was 25%, the “percent of inhibition of writhings” value ([3]; 20 mg/kg per os) was 51% and the “percent of inhibition of writhings” value ([3]; 50 mg/kg per os) was 89%. The “potency ratio co. 57:ASA” value ([3]; writhing test, per os) was 6.6, the “percent of increase of the pain threshold” value ([4]; 20 mg/kg per os) was 78% and the “percent of increase of the pain threshold” value ([4]; 50 mg/kg per os) was 115%. For the same compound, the “percent of increase of the pain threshold” value ([4]; 100 mg/kg per os) was 172%, the “potency ratio co. 57:ASA” value ([4]; pain relief test, per os) was 2.6 and the “analgesic activity” value [2] was “highly effective”. The LD50 [5] was > 1000 mg/kg and the LD50 [6] was 650 mg/kg.

In the case of `Cc1nn(C)c(N)c1C1=CCN(C)CC1` [Example 1, 4-(1,2,5,6-tetrahydro-1-methyl-4-pyridinyl)-1,3-dimethyl 5-(1H)-pyrazolamine], the “influence” value [1] is reported as “no practical influence”.

With `CCN(CC)CCn1c(=O)c2c(c3c(C)nn(C)c31)CCC2` [Example 39] the “analgesic activity” value [2] was “good activity”.

For `CCCCOc1nc2c(c(C)nn2C)c2c1CCCC2` [Example 27], the “influence” value [1] was “no practical influence”.

In the case of `Cc1nn(C)c2c1c1c(c(=O)n2CCN2CCN(c3ccccc3)CC2)CCC1` [Example 40], the “influence” value [1] is reported as “no practical influence”.

In the case of `Cc1nn(C)c2nc(OCCO)c3c(c12)CCCC3` [Example 28], the “influence” value [1] is reported as “no practical influence”.

In the case of `CC(=O)Oc1ccccc1C(=O)O` [ASA, acetylsalicylic acid, reference compound], the “percent of inhibition of writhings” value ([3]; 20 mg/kg per os) is reported as 10%, the “percent of inhibition of writhings” value ([3]; 50 mg/kg per os) is reported as 57% and the “percent of inhibition of writhings” value ([3]; 100 mg/kg per os) is reported as 86%. The “percent of increase of the pain threshold” value ([4]; 50 mg/kg per os) was 39%, the “percent of increase of the pain threshold” value ([4]; 100 mg/kg per os) was 84% and the “percent of increase of the pain threshold” value ([4]; 300 mg/kg per os) was 109%.
